Assay results published in patent US8258114B2, “Modulation of glucose-6-phosphatase translocase expression” (Isis Pharmaceuticals, Inc., priority 2004, dated 2012).
Oligonucleotides are written 5' to 3', each unit as a sugar letter and its base; * is a phosphorothioate linkage, no mark a phosphodiester; rarer units and linkages stand in square brackets, end groups in braces. Plain capitals give the bases only. e = 2'-O-(2-methoxyethyl) (MOE); [5mC] = 5-methylcytosine; d = 2'-deoxy (DNA)

Tested on: mouse glucose-6-phosphatase translocase mRNA
Assay: Antisense inhibition of mouse glucose-6-phosphatase translocase mRNA in primary mouse hepatocytes, 50 nM (Table 5)
Format: cell-based
Settings: 50 nM oligonucleotide, mRNA by real-time PCR, normalized with RIBOGREEN
Experimental: Primary mouse hepatocytes were prepared from CD-1 mice purchased from Charles River Labs. Primary mouse hepatocytes were routinely cultured in Hepatocyte Attachment Media supplemented with 10% fetal bovine serum (Invitrogen Life Technologies, Carlsbad, Calif.), 250 nM dexamethasone, and 10 nM bovine insulin (Sigma-Aldrich, St. Louis, Mo.). Cells were seeded into 96-well plates (Falcon-Primaria #353872, BD Biosciences, Bedford, Mass.) at a density of approximately 4,000-6,000 cells/well for use in oligomeric compound transfection experiments.
Quantitation of glucose 6-phosphatase translocase mRNA levels was accomplished by real-time quantitative PCR using the ABI PRISM™ 7600, 7700, or 7900 Sequence Detection System (PE-Applied Biosystems, Foster City, Calif.) according to manufacturer's instructions.
Prior to quantitative PCR analysis, primer-probe sets specific to the target gene being measured were evaluated for their ability to be “multiplexed” with a GAPDH amplification reaction. After isolation the RNA is subjected to sequential reverse transcriptase (RT) reaction and real-time PCR, both of which are performed in the same well. RT and PCR reagents were obtained from Invitrogen Life Technologies (Carlsbad, Calif.). […] The RT reaction was carried out by incubation for 30 minutes at 48° C. Following a 10 minute incubation at 95° C. to activate the PLATINUM® Taq, 40 cycles of a two-step PCR protocol were carried out: 95° C. for 15 seconds (denaturation) followed by 60° C. for 1.5 minutes (annealing/extension).
Gene target quantities obtained by RT, real-time PCR were normalized using either the expression level of GAPDH, a gene whose expression is constant, or by quantifying total RNA using RiboGreen™ (Molecular Probes, Inc. Eugene, Oreg.). GAPDH expression was quantified by RT, real-time PCR, by being run simultaneously with the target, multiplexing, or separately. Total RNA was quantified using RiboGreen™ RNA quantification reagent (Molecular Probes, Inc. Eugene, Oreg.).
A series of oligomeric compounds was designed to target different regions of mouse glucose-6-phosphatase translocase, using published sequences cited in Table 1. All compounds in Table 5 are chimeric oligonucleotides (“gapmers”) 20 nucleotides in length, composed of a central “gap” region consisting of 10 2′-deoxynucleotides, which is flanked on both sides (5′ and 3′) by five-nucleotide “wings”. The wings are composed of 2′-O-(2-methoxyethyl) nucleotides, also known as 2′-MOE nucleotides. The internucleoside (backbone) linkages are phosphorothioate throughout the oligonucleotide. All cytidine residues are 5-methylcytidines. The compounds were analyzed for their effect on gene target mRNA levels by quantitative real-time PCR as described in other examples herein, using the following primer-probe set designed to hybridize to mouse glucose-6-phosphatase translocase: • forward primer: […] (SEQ ID NO: 66) • reverse primer: CCATCCCAGCCATCATGAG (SEQ ID NO: 67) and the PCR probe was: FAM-[…]-TAMRA (SEQ ID NO: 68) where FAM is the fluorescent reporter dye and TAMRA is the quencher dye. Mouse target gene quantities were normalized by quantifying total RNA using RIBOGREEN™.
Data are from experiments in which primary mouse hepatocytes were treated with 50 nM of the antisense oligonucleotides of the present invention. A reduction in expression is expressed as percent inhibition in Table 5. If present, “N.D.” indicates “not determined”. The target regions to which these oligomeric compounds are inhibitory are herein referred to as “validated target segments.”

| Sequence | % Inhib [%] |
| --- | --- |
| CTGATGGCGTAGGCTGCCGA (e[5mC]*eT*eG*eA*eT*dG*dG*d[5mC]*dG*dT*dA*dG*dG*d[5mC]*dT*eG*e[5mC]*e[5mC]*eG*eA; antisense) [ISIS 148950] | 0 |
| CTGCTGGCCCACTCCAGTAC (e[5mC]*eT*eG*e[5mC]*eT*dG*dG*d[5mC]*d[5mC]*d[5mC]*dA*d[5mC]*dT*d[5mC]*d[5mC]*eA*eG*eT*eA*e[5mC]; antisense) [ISIS 148940] | 61 |
| CTTGTCCAGAGCGATCTCAT (e[5mC]*eT*eT*eG*eT*d[5mC]*d[5mC]*dA*dG*dA*dG*d[5mC]*dG*dA*dT*e[5mC]*eT*e[5mC]*eA*eT; antisense) [ISIS 148945] | 35 |
| CTTTCCGTGTCCTGCCAGTA (e[5mC]*eT*eT*eT*e[5mC]*d[5mC]*dG*dT*dG*dT*d[5mC]*d[5mC]*dT*dG*d[5mC]*e[5mC]*eA*eG*eT*eA; antisense) [ISIS 148987] | 45 |
| GAAGGGTATAGGAGACACCC (eG*eA*eA*eG*eG*dG*dT*dA*dT*dA*dG*dG*dA*dG*dA*e[5mC]*eA*e[5mC]*e[5mC]*e[5mC]; antisense) [ISIS 148997] | 57 |
| GACTGCTCCTGCTTGCAGCT (eG*eA*e[5mC]*eT*eG*d[5mC]*dT*d[5mC]*d[5mC]*dT*dG*d[5mC]*dT*dT*dG*e[5mC]*eA*eG*e[5mC]*eT; antisense) [ISIS 148938] | 50 |
| GAGCCCCAAATCGTCCTTGT (eG*eA*eG*e[5mC]*e[5mC]*d[5mC]*d[5mC]*dA*dA*dA*dT*d[5mC]*dG*dT*d[5mC]*e[5mC]*eT*eT*eG*eT; antisense) [ISIS 148947] | 37 |
| GAGCTACCCACAAGGGCGGA (eG*eA*eG*e[5mC]*eT*dA*d[5mC]*d[5mC]*d[5mC]*dA*d[5mC]*dA*dA*dG*dG*eG*e[5mC]*eG*eG*eA; antisense) [ISIS 148965] | 16 |
| GAGGTTCCACACAAGTTGGG (eG*eA*eG*eG*eT*dT*d[5mC]*d[5mC]*dA*d[5mC]*dA*d[5mC]*dA*dA*dG*eT*eT*eG*eG*eG; antisense) [ISIS 148978] | 34 |
| GCAGCCGCTCTCCTTTCCGT (eG*e[5mC]*eA*eG*e[5mC]*d[5mC]*dG*d[5mC]*dT*d[5mC]*dT*d[5mC]*d[5mC]*dT*dT*eT*e[5mC]*e[5mC]*eG*eT; antisense) [ISIS 148988] | 73 |
| GCCAGTGTGCTGCGCCAGCT (eG*e[5mC]*e[5mC]*eA*eG*dT*dG*dT*dG*d[5mC]*dT*dG*d[5mC]*dG*d[5mC]*e[5mC]*eA*eG*e[5mC]*eT; antisense) [ISIS 148957] | 57 |
| GCCCCAGTCTGTACAGCAAG (eG*e[5mC]*e[5mC]*e[5mC]*e[5mC]*dA*dG*dT*d[5mC]*dT*dG*dT*dA*d[5mC]*dA*eG*e[5mC]*eA*eA*eG; antisense) [ISIS 148963] | 55 |
| GCCGCAAATATGACAGTGCG (eG*e[5mC]*e[5mC]*eG*e[5mC]*dA*dA*dA*dT*dA*dT*dG*dA*d[5mC]*dA*eG*eT*eG*e[5mC]*eG; antisense) [ISIS 148942] | 17 |
| GCTCACAAACTTGCTGATGG (eG*e[5mC]*eT*e[5mC]*eA*d[5mC]*dA*dA*dA*d[5mC]*dT*dT*dG*d[5mC]*dT*eG*eA*eT*eG*eG; antisense) [ISIS 148951] | 57 |
| GCTGAAGGGTAAGCCAGCCA (eG*e[5mC]*eT*eG*eA*dA*dG*dG*dG*dT*dA*dA*dG*d[5mC]*d[5mC]*eA*eG*e[5mC]*e[5mC]*eA; antisense) [ISIS 148980] | 43 |
| GCTTTATTCGATCTATACAA (eG*e[5mC]*eT*eT*eT*dA*dT*dT*d[5mC]*dG*dA*dT*d[5mC]*dT*dA*eT*eA*e[5mC]*eA*eA; antisense) [ISIS 149009] | 5 |
| GGATATTTCGAAGCAAGAAG (eG*eG*eA*eT*eA*dT*dT*dT*d[5mC]*dG*dA*dA*dG*d[5mC]*dA*eA*eG*eA*eA*eG; antisense) [ISIS 148983] | 43 |
| GGCACTGATGTAGGAGCTAC (eG*eG*e[5mC]*eA*e[5mC]*dT*dG*dA*dT*dG*dT*dA*dG*dG*dA*eG*e[5mC]*eT*eA*e[5mC]; antisense) [ISIS 148966] | 54 |

| Sequence | % Inhib [%] |
| --- | --- |
| GGCAGAAACCACAGGCCATT (eG*eG*e[5mC]*eA*eG*dA*dA*dA*d[5mC]*d[5mC]*dA*d[5mC]*dA*dG*dG*e[5mC]*e[5mC]*eA*eT*eT; antisense) [ISIS 149000] | 56 |
| GGCTGCTTGTGATGAGCCCC (eG*eG*e[5mC]*eT*eG*d[5mC]*dT*dT*dG*dT*dG*dA*dT*dG*dA*eG*e[5mC]*e[5mC]*e[5mC]*e[5mC]; antisense) [ISIS 148949] | 52 |
| GGGACCTCATTAGCCACTGG (eG*eG*eG*eA*e[5mC]*d[5mC]*dT*d[5mC]*dA*dT*dT*dA*dG*d[5mC]*d[5mC]*eA*e[5mC]*eT*eG*eG; antisense) [ISIS 148993] | 55 |
| GGGACTGAGGTATTGGCATC (eG*eG*eG*eA*e[5mC]*dT*dG*dA*dG*dG*dT*dA*dT*dT*dG*eG*e[5mC]*eA*eT*e[5mC]; antisense) [ISIS 149003] | 9 |
| GGGTACGGCAGAAACCACAG (eG*eG*eG*eT*eA*d[5mC]*dG*dG*d[5mC]*dA*dG*dA*dA*dA*d[5mC]*e[5mC]*eA*e[5mC]*eA*eG; antisense) [ISIS 149001] | 42 |
| GTGATGAGCCCCAAATCGTC (eG*eT*eG*eA*eT*dG*dA*dG*d[5mC]*d[5mC]*d[5mC]*d[5mC]*dA*dA*dA*eT*e[5mC]*eG*eT*e[5mC]; antisense) [ISIS 148948] | 52 |
| GTGGAGACACAGAAACGTAA (eG*eT*eG*eG*eA*dG*dA*d[5mC]*dA*d[5mC]*dA*dG*dA*dA*dA*e[5mC]*eG*eT*eA*eA; antisense) [ISIS 148992] | 51 |
| TACAGCAAGTCTTTACTCCG (eT*eA*e[5mC]*eA*eG*d[5mC]*dA*dA*dG*dT*d[5mC]*dT*dT*dT*dA*e[5mC]*eT*e[5mC]*e[5mC]*eG; antisense) [ISIS 148962] | 47 |
| TACTCGGAAGAGATACGTGG (eT*eA*e[5mC]*eT*e[5mC]*dG*dG*dA*dA*dG*dA*dG*dA*dT*dA*e[5mC]*eG*eT*eG*eG; antisense) [ISIS 148974] | 8 |
| TATAGGAGACACCCTGAATT (eT*eA*eT*eA*eG*dG*dA*dG*dA*d[5mC]*dA*d[5mC]*d[5mC]*d[5mC]*dT*eG*eA*eA*eT*eT; antisense) [ISIS 148996] | −3 |
| TATTGGCATCAATTTTGCCC (eT*eA*eT*eT*eG*dG*d[5mC]*dA*dT*d[5mC]*dA*dA*dT*dT*dT*eT*eG*e[5mC]*e[5mC]*e[5mC]; antisense) [ISIS 149002] | 22 |
| TCACTCTCCCTTCTTGGATA (eT*e[5mC]*eA*e[5mC]*eT*d[5mC]*dT*d[5mC]*d[5mC]*d[5mC]*dT*dT*d[5mC]*dT*dT*eG*eG*eA*eT*eA; antisense) [ISIS 148984] | 60 |
| TCATGAGAGTGGTGGACTCC (eT*e[5mC]*eA*eT*eG*dA*dG*dA*dG*dT*dG*dG*dT*dG*dG*eA*e[5mC]*eT*e[5mC]*e[5mC]; antisense) [ISIS 149005] | 27 |
| TCATGCTGGTTGACAACACA (eT*e[5mC]*eA*eT*eG*d[5mC]*dT*dG*dG*dT*dT*dG*dA*d[5mC]*dA*eA*e[5mC]*eA*e[5mC]*eA; antisense) [ISIS 148955] | 36 |
| TCCTCTCCTCCCTTAGGGAC (eT*e[5mC]*e[5mC]*eT*e[5mC]*dT*d[5mC]*d[5mC]*dT*d[5mC]*d[5mC]*d[5mC]*dT*dT*dA*eG*eG*eG*eA*e[5mC]; antisense) [ISIS 149004] | 42 |
| TCGTCCTTGTCCAGAGCGAT (eT*e[5mC]*eG*eT*e[5mC]*d[5mC]*dT*dT*dG*dT*d[5mC]*d[5mC]*dA*dG*dA*eG*e[5mC]*eG*eA*eT; antisense) [ISIS 148946] | 70 |
| TCTCTTTAGTGCCTGGATCT (eT*e[5mC]*eT*e[5mC]*eT*dT*dT*dA*dG*dT*dG*d[5mC]*d[5mC]*dT*dG*eG*eA*eT*e[5mC]*eT; antisense) [ISIS 148937] | 52 |
